# Source: patent US20050192308A1 (priority 2001, published 2005)
# Molecular target: Mu opioid receptor (Homo sapiens, UniProt P35372)
# Sequence (P35372 whole entry): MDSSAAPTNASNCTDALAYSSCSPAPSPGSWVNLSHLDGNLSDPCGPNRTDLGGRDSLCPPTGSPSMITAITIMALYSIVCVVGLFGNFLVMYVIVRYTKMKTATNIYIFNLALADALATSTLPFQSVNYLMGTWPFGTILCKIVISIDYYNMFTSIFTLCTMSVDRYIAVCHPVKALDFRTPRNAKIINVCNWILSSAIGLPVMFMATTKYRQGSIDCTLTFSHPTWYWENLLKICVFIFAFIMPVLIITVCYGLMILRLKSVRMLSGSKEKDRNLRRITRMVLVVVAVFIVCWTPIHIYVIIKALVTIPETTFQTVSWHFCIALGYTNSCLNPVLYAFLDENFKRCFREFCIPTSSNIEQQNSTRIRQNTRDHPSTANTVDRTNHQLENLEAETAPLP
structure (smiles),measurement,value
"C[C@@H](NC(=O)[C@@H](N)Cc1ccc(O)cc1)C(=O)NCC(=O)N(C)[C@@H](Cc1ccccc1)C(=O)NCCO [DAMGO Control, DAMGO]",Functional GTPgS Mu Efficacy % DAMGO,100 ± 0%
